Source: PubChem BioAssay AID1259407 (Chemical Carcinogenesis Research Information System (CCRIS), 2018)
Active and inactive are the calls of the source. How the calls were made is not given here.

System: CCRIS mutagenicity, Ames/micronucleus/aberration tests
Test: CCRIS mutagenicity studies

For `CN(C)P(=O)(N(C)C)N(C)C`, the mutagenic call (Test System: AMES SALMONELLA TYPHIMURIUM, Strain/Indicator: TA97, Metabolic Activation: HAMSTER LIVER S-9, AROCLOR 1254 (10 OR 30%), Method: PREINCUBATION) was “inactive; negative”, the mutagenic call (Test System: AMES SALMONELLA TYPHIMURIUM, Strain/Indicator: TA97, Metabolic Activation: NONE, Method: PREINCUBATION) was “inactive; negative” and the mutagenic call (Test System: AMES SALMONELLA TYPHIMURIUM, Strain/Indicator: TA97, Metabolic Activation: NONE, Method: STANDARD PLATE) was “inactive; negative”. The mutagenic call (Test System: AMES SALMONELLA TYPHIMURIUM, Strain/Indicator: TA97, Metabolic Activation: RAT LIVER S-9, AROCLOR 1254 (10 OR 30%), Method: PREINCUBATION) was “inactive; negative”, the mutagenic call (Test System: AMES SALMONELLA TYPHIMURIUM, Strain/Indicator: TA97, Metabolic Activation: RAT, LIVER, S-9, AROCLOR 1254, Method: STANDARD PLATE) was “inactive; negative” and the mutagenic call (Test System: AMES SALMONELLA TYPHIMURIUM, Strain/Indicator: TA97, Metabolic Activation: RAT, LIVER, S-9, AROCLOR 1254, Method: SUSPENSION) was “active; positive”. For the same compound, the mutagenic call (Test System: AMES SALMONELLA TYPHIMURIUM, Strain/Indicator: TA97, Metabolic Activation: S-9, Method: STANDARD PLATE) was “inactive; negative”, the mutagenic call (Test System: AMES SALMONELLA TYPHIMURIUM, Strain/Indicator: TA98, Metabolic Activation: HAMSTER LIVER S-9, AROCLOR 1254 (10 OR 30%), Method: PREINCUBATION) was “inactive; negative” and the mutagenic call (Test System: AMES SALMONELLA TYPHIMURIUM, Strain/Indicator: TA98, Metabolic Activation: NONE, Method: PREINCUBATION) was “inactive; negative”. The mutagenic call (Test System: AMES SALMONELLA TYPHIMURIUM, Strain/Indicator: TA98, Metabolic Activation: NONE, Method: STANDARD PLATE) was “inactive; negative”, the mutagenic call (Test System: AMES SALMONELLA TYPHIMURIUM, Strain/Indicator: TA98, Metabolic Activation: RAT LIVER S-9, AROCLOR 1254 (10 OR 30%), Method: PREINCUBATION) was “inactive; negative” and the mutagenic call (Test System: AMES SALMONELLA TYPHIMURIUM, Strain/Indicator: TA98, Metabolic Activation: RAT, LIVER, S-9, AROCLOR 1254, Method: STANDARD PLATE) was “inactive; negative”. The mutagenic call (Test System: AMES SALMONELLA TYPHIMURIUM, Strain/Indicator: TA98, Metabolic Activation: RAT, LIVER, S-9, AROCLOR 1254, Method: SUSPENSION) was “active; positive”, the mutagenic call (Test System: AMES SALMONELLA TYPHIMURIUM, Strain/Indicator: TA98, Metabolic Activation: S-9, Method: STANDARD PLATE) was “inactive; negative” and the mutagenic call (Test System: AMES SALMONELLA TYPHIMURIUM, Strain/Indicator: TA100, Metabolic Activation: HAMSTER LIVER S-9, AROCLOR 1254 (10 OR 30%), Method: PREINCUBATION) was “inactive; negative”. The mutagenic call (Test System: AMES SALMONELLA TYPHIMURIUM, Strain/Indicator: TA100, Metabolic Activation: NONE, Method: PREINCUBATION) was “inactive; negative”, the mutagenic call (Test System: AMES SALMONELLA TYPHIMURIUM, Strain/Indicator: TA100, Metabolic Activation: NONE, Method: STANDARD PLATE) was “inactive; negative” and the mutagenic call (Test System: AMES SALMONELLA TYPHIMURIUM, Strain/Indicator: TA100, Metabolic Activation: NONE, Method: SUSPENSION) was “inactive; negative”. The mutagenic call (Test System: AMES SALMONELLA TYPHIMURIUM, Strain/Indicator: TA100, Metabolic Activation: RAT LIVER S-9, AROCLOR 1254 (10 OR 30%), Method: PREINCUBATION) was “inactive; negative”, the mutagenic call (Test System: AMES SALMONELLA TYPHIMURIUM, Strain/Indicator: TA100, Metabolic Activation: RAT, LIVER, S-9, AROCLOR 1254 (4, 10 OR 30%), Method: PREINCUBATION) was “inactive; negative” and the mutagenic call (Test System: AMES SALMONELLA TYPHIMURIUM, Strain/Indicator: TA100, Metabolic Activation: RAT, LIVER, S-9, AROCLOR 1254 (10%), Method: STANDARD PLATE) was “inactive; negative”. For the same compound, the mutagenic call (Test System: AMES SALMONELLA TYPHIMURIUM, Strain/Indicator: TA100, Metabolic Activation: RAT, LIVER, S-9, AROCLOR 1254, Method: PREINCUBATION) was “inactive; negative”, the mutagenic call (Test System: AMES SALMONELLA TYPHIMURIUM, Strain/Indicator: TA100, Metabolic Activation: RAT, LIVER, S-9, AROCLOR 1254, Method: STANDARD PLATE) was “inactive; negative” and the mutagenic call (Test System: AMES SALMONELLA TYPHIMURIUM, Strain/Indicator: TA100, Metabolic Activation: RAT, LIVER, S-9, AROCLOR 1254, Method: SUSPENSION) was “active; positive”. For the same compound, the mutagenic call (Test System: AMES SALMONELLA TYPHIMURIUM, Strain/Indicator: TA100, Metabolic Activation: S-9, Method: STANDARD PLATE) was “inactive; negative”, the mutagenic call (Test System: AMES SALMONELLA TYPHIMURIUM, Strain/Indicator: TA102, Metabolic Activation: NONE, Method: STANDARD PLATE) was “inactive; negative” and the mutagenic call (Test System: AMES SALMONELLA TYPHIMURIUM, Strain/Indicator: TA102, Metabolic Activation: S-9, Method: STANDARD PLATE) was “inactive; negative”. The mutagenic call (Test System: AMES SALMONELLA TYPHIMURIUM, Strain/Indicator: TA1535, Metabolic Activation: HAMSTER LIVER S-9, AROCLOR 1254 (10 OR 30%), Method: PREINCUBATION) was “inactive; negative”, the mutagenic call (Test System: AMES SALMONELLA TYPHIMURIUM, Strain/Indicator: TA1535, Metabolic Activation: NONE, Method: PREINCUBATION) was “inactive; negative” and the mutagenic call (Test System: AMES SALMONELLA TYPHIMURIUM, Strain/Indicator: TA1535, Metabolic Activation: NONE, Method: STANDARD PLATE) was “inactive; negative”. For the same compound, the mutagenic call (Test System: AMES SALMONELLA TYPHIMURIUM, Strain/Indicator: TA1535, Metabolic Activation: RAT LIVER S-9, AROCLOR 1254 (10 OR 30%), Method: PREINCUBATION) was “inactive; negative”, the mutagenic call (Test System: AMES SALMONELLA TYPHIMURIUM, Strain/Indicator: TA1535, Metabolic Activation: RAT, LIVER, S-9, AROCLOR 1254, Method: STANDARD PLATE) was “inactive; negative” and the mutagenic call (Test System: AMES SALMONELLA TYPHIMURIUM, Strain/Indicator: TA1537, Metabolic Activation: NONE, Method: STANDARD PLATE) was “inactive; negative”. For the same compound, the mutagenic call (Test System: AMES SALMONELLA TYPHIMURIUM, Strain/Indicator: TA1537, Metabolic Activation: RAT, LIVER, S-9, AROCLOR 1254, Method: STANDARD PLATE) was “inactive; negative”, the mutagenic call (Test System: AMES SALMONELLA TYPHIMURIUM, Strain/Indicator: TA1537, Metabolic Activation: RAT, LIVER, S-9, AROCLOR 1254, Method: SUSPENSION) was “active; positive” and the mutagenic call (Test System: AMES SALMONELLA TYPHIMURIUM, Strain/Indicator: TA1538, Metabolic Activation: NONE, Method: STANDARD PLATE) was “inactive; negative”. For the same compound, the mutagenic call (Test System: AMES SALMONELLA TYPHIMURIUM, Strain/Indicator: TA1538, Metabolic Activation: RAT, LIVER, S-9, AROCLOR 1254, Method: STANDARD PLATE) was “inactive; negative”, the mutagenic call (Test System: CHINESE HAMSTER OVARY, Strain/Indicator: CHO/6-THIOGUANINE, Metabolic Activation: HAMSTER EMBRYO CELL-MEDIATED) was “inactive; negative” and the mutagenic call (Test System: CHINESE HAMSTER OVARY, Strain/Indicator: CHO/6-THIOGUANINE, Metabolic Activation: NONE) was “inactive; negative”. For the same compound, the mutagenic call (Test System: CHINESE HAMSTER OVARY, Strain/Indicator: CHO/OUABAIN, Metabolic Activation: HAMSTER EMBRYO CELL-MEDIATED) was “inactive; negative”, the mutagenic call (Test System: CHINESE HAMSTER OVARY, Strain/Indicator: CHO/OUABAIN, Metabolic Activation: NONE) was “inactive; negative” and the mutagenic call (Test System: CHINESE HAMSTER V-79, Strain/Indicator: V-79 (HGPRT)/6-THIOGUANINE, Metabolic Activation: NONE) was “inactive; negative”. The mutagenic call (Test System: CHINESE HAMSTER V-79, Strain/Indicator: V-79 (HGPRT)/6-THIOGUANINE, Metabolic Activation: RAT, LIVER, S-9, PHENOBARBITAL AND BETA-NAPHTHOFLAVONE) was “inactive; negative”, the mutagenic call (Test System: CHINESE HAMSTER V-79, Strain/Indicator: V-79/6-THIOGUANINE, Metabolic Activation: NONE, Method: REPLATING) was “active; positive” and the mutagenic call (Test System: CHINESE HAMSTER V-79, Strain/Indicator: V-79/OUABAIN, Metabolic Activation: HAMSTER EMBRYO CELL-MEDIATED) was “inactive; negative”. For the same compound, the mutagenic call (Test System: CHINESE HAMSTER V-79, Strain/Indicator: V-79/OUABAIN, Metabolic Activation: RAT, LIVER, S-15, PHENOBARBITAL AND 5,6-BENZOFLAVONE) was “inactive; negative”, the mutagenic call (Test System: MOUSE LYMPHOMA, Strain/Indicator: L5178Y (TK+/+)/OUABAIN, Metabolic Activation: NONE, Method: SUSPENSION/PLATE) was “active; positive” and the mutagenic call (Test System: MOUSE LYMPHOMA, Strain/Indicator: L5178Y (TK+/-)/TRIFLUOROTHYMIDINE, Metabolic Activation: RAT LIVER S-9, AROCLOR 1254, Method: SUSPENSION/PLATE) was “inactive; negative”. The mutagenic call (Test System: MOUSE LYMPHOMA, Strain/Indicator: L5178Y (TK+/-)/TRIFLUROTHYMIDINE, Metabolic Activation: NONE, Method: SUSPENSION/PLATE) was “active; positive”, the mutagenic call (Test System: MOUSE LYMPHOMA, Strain/Indicator: L5178Y (TK+/TK-), Metabolic Activation: NONE, Method: MICROWELL) was “active; positive” and the mutagenic call (Test System: MOUSE LYMPHOMA, Strain/Indicator: L5178Y (TK+/TK-), Metabolic Activation: RAT, LIVER, S-9, AROCLOR 1254, Method: SUSPENSION/PLATE) was “inactive; negative”. For the same compound, the mutagenic call (Test System: MOUSE LYMPHOMA, Strain/Indicator: L5178Y (TK+/TK-), Metabolic Activation: RAT, LIVER, S-9, Method: SUSPENSION/PLATE) was “inactive; negative”, the mutagenic call (Test System: MOUSE LYMPHOMA, Strain/Indicator: L5178Y (TK+/TK-), Metabolic Activation: S-9, Method: MICROWELL) was “active; positive” and the mutagenic call (Test System: UDS RAT HEPATOCYTES, Strain/Indicator: THY INCORP, Metabolic Activation: NONE, Method: LIQUID SCINTILLATION COUNTING) was “active; positive”.
